Consider two compounds from US20110071201A1, “PHENOL-CONTAINING AZOLE COMPOSITIONS FOR THE PROTECTION OF INDUSTRIAL MATERIALS” (LANXESS DEUTSCHLAND GMBH, priority 2009, published 2011).

What is called MIC is the lowest concentration found to suppress growth.

Data set [1] is described as follows: Solubility in water and vapour pressure. Type of data set: physicochemical.
A further data set concerns Coriolus versicolor. The data set is described as follows: Agar hyphae growth inhibition test (MIC) with Kull synergism index. It is filed as cell-based. Conditions: Trametes versicolor, 168 h; malt extract/peptone nutrient agar, 26° C., about 1 week; concentration at which radial hyphae growth was suppressed completely; read-out: MIC value against Coriolus versicolor. As for the experimental part:
Mycelium pieces were punched out of a colony of the wood-destroying organism Coriolus versicolor and incubated on a malt extract/peptone-containing nutrient agar at 26° C. The growth of the hyphae with and without active compound and 6,6′-di-tert-butyl-2,2′-methylenedi-p-cresol was compared. The minimum inhibitory concentration (MIC) stated was the concentration at which the radial hyphae growth was suppressed completely (incubation time: about 1 week, independently of the fungal growth of the comparative sample without active compound).
The synergism was determined by the method described by Kull et al. (F. C. Kull, P. C. Eismann, H. D. Sylvestrowicz, R. L. Mayer, Applied Microbiology 1961, 9, 538-541). The following relationships apply:
SI=1 means additivity SI>1 means antagonism SI<1 means synergism Qa=concentration of substance A which is the MIC Qb=concentration of substance B which is the MIC QA=concentration of substance A in the concentration of A/B at which microbial growth is suppressed QB=concentration of substance B in the concentration of A/B at which microbial growth is suppressed

The test system of the next data set is Lentinus tigrinus. The data set is described as above. It is filed as cell-based. The note with it: 168 h, malt extract/peptone nutrient agar, 26° C., about 1 week, concentration at which radial hyphae growth was suppressed completely, read-out: MIC value against Lentinus tigrinus.

Consider `Cc1cc(Cc2cc(C)cc(C(C)(C)C)c2O)c(O)c(C(C)(C)C)c1` [phenol I, 6,6′-di-tert-butyl-2,2′-methylenedi-p-cresol], for which the solubility in water in data set [1] is under 1 ppm. In data set [1] (at 50° C.), this compound displayed a vapour pressure of 0.0001 hPa. Moreover, the MIC in the data set with Coriolus versicolor is over 30 mg/L.
Turning to `CC(C)(C)C(O)(CCc1ccc(Cl)cc1)Cn1cncn1` (centres unmarked) [tebuconazole, reference compound], the MIC worked out at 0.3 mg/L in the data set on Lentinus tigrinus and 1 mg/L in the data set with Coriolus versicolor.
